# Data as given in patent US20250288658A1 (priority 2022, published 2025).
# Bridge positions count the residues as written; N and C are the ends. Square brackets hold non-standard residues; d marks the D form. Side chains are listed from the residue outwards. Peptide text beside a SMILES is read from it. * marks the point of attachment. ξ: configuration not given here. Acetyl(2-S-3ξ-cholesteryl) = CC(C)CCC[C@@H](C)[C@H]1CC[C@H]2[C@@H]3CC=C4CC(SCC(=O)*)CC[C@]4(C)[C@H]3CC[C@]12C; R8 = C=CCCCCCC[C@@](C)(N)C(=O)O; PEG4 = NCCOCCOCCOCCOCCC(=O)O; S5 = C=CCCC[C@](C)(N)C(=O)O
# Test system: wild type EBOV
# Conditions: 24 h
smiles,measurement,value
"CC[C@H](C)[C@H](NC(=O)[C@H](C)NC(=O)[C@H](CS)NC(=O)[C@H](CC(=O)O)NC(=O)[C@@H]1CCCN1C(=O)CNC(=O)[C@H](CC(C)C)NC(=O)[C@@H](NC(=O)[C@H](Cc1c[nH]cn1)NC(=O)[C@H](CS)NC(=O)[C@@H](NC(C)=O)[C@@H](C)O)[C@@H](C)CC)C(=O)N[C@@H](CCC(=O)O)C(=O)N1CCC[C@H]1C(=O)N[C@@H](Cc1c[nH]cn1)C(=O)N[C@@H](CC(=O)O)C(=O)N[C@@H](Cc1c[nH]c2ccccc12)C(=O)N[C@H](C(=O)N[C@]1(C)CCCCCCC=CCCC[C@@](C)(C(=O)N[C@@H](CCC(N)=O)C(=O)N[C@H](C(=O)N[C@H](C(=O)N[C@@H](Cc2c[nH]cn2)C(=O)N[C@@H](CC(=O)O)C(=O)N[C@@H](Cc2ccccc2)C(=O)N[C@H](C(=O)N[C@@H](CCCCNC(=O)CCOCCOCCOCCOCCNC(=O)CSC2CC[C@@]3(C)C(=CC[C@H]4[C@@H]5CC[C@H]([C@H](C)CCCC(C)C)[C@@]5(C)CC[C@@H]43)C2)C(N)=O)C(C)C)[C@@H](C)CC)[C@@H](C)CC)NC(=O)[C@H]([C@@H](C)CC)NC(=O)[C@H](CCCCN)NC(=O)[C@H](CC(=O)O)NC(=O)[C@H]([C@@H](C)O)NC(=O)[C@H]([C@@H](C)CC)NC(=O)[C@H](CC(N)=O)NC1=O)[C@@H](C)O (stereo partly shown) [SEQ ID NO:22, TCHILGPDCAIEPHDWT8NITDKIXQIIHDFV*] (Ac-TCHILGPDCAIEPHDWT[R8]NITDKI[S5]QIIHDFVK([PEG4-Acetyl(2-S-3ξ-cholesteryl)])-NH2; staple 18-25)",IC50,~1500 nM
